Assay results taken from patent US10376520B2, “Methods for the treatment of cardiovascular disorders” (Galapagos NV, priority 2015, dated 2019).

System: RA patients
Test: Atherogenic index, Study 1 (RA patients, add-on to MTX)
Format: in vivo, human
Experimental: As used herein, the term ‘atherogenic index’ refers to
Double-blind, placebo-controlled add on study in subjects with moderately to severely active RA who have an inadequate response to methotrexate (MTX) (oral or parenteral).
Compound 1 (dosed as a [Compound 1:HCl:3H2O]) is dosed for twelve weeks once daily (q.d.) (50 mg, 100 mg or 200 mg) or twice daily (b.i.d.) (25 mg, 50 mg or 100 mg); or placebo.
At Week 12, the subjects on placebo who have not achieved 20% improvement in swollen joint count (SJC66) and tender joint count (TJC68) are re-randomized automatically to receive Compound 1 (dosed as a [Compound 1:HCl:3H2O]) either at 100 mg q.d. or 50 mg b.i.d. doses in a blinded fashion; subjects on 50 mg q.d. who have not achieved 20% improvement in SJC66 and TJC68 will be assigned to 100 mg q.d. and subjects on 25 mg b.i.d. that have not achieved a 20% improvement in SJC66 and TJC68 will be assigned to 50 mg b.i.d. Subjects who switch treatment at week 12 are handled as if they discontinued at week 12 for the purpose of statistical analysis, whereas subjects in the other groups will maintain their randomized treatment until Week 24.
The atherogenic index has been identified to be a good predictor of cardiovascular disorders risks and is calculated as follows: […]

[1] = 100 mg b.i.d. continued over 24 weeks, week 1
[2] = 100 mg b.i.d. continued over 24 weeks, week 2
[3] = 100 mg b.i.d. continued over 24 weeks, week 4
[4] = 100 mg b.i.d. continued over 24 weeks, week 8
[5] = 100 mg b.i.d. continued over 24 weeks, week 12
[6] = 100 mg b.i.d. continued over 24 weeks, week 16
[7] = 100 mg b.i.d. continued over 24 weeks, week 20
[8] = 100 mg b.i.d. continued over 24 weeks, week 24
[9] = 100 mg q.d. continued over 24 weeks, week 1
[10] = 100 mg q.d. continued over 24 weeks, week 2
[11] = 100 mg q.d. continued over 24 weeks, week 4
[12] = 100 mg q.d. continued over 24 weeks, week 8
[13] = 100 mg q.d. continued over 24 weeks, week 12
[14] = 100 mg q.d. continued over 24 weeks, week 16
[15] = 100 mg q.d. continued over 24 weeks, week 20
[16] = 100 mg q.d. continued over 24 weeks, week 24

For O=C(Nc1nc2cccc(-c3ccc(CN4CCS(=O)(=O)CC4)cc3)n2n1)C1CC1 [Compound 1, cyclopropanecarboxylic acid {5-[4-(1,1-dioxo-thiomorpholin-4-ylmethyl)-phenyl]-[1,2,4]triazolo[1,5-a]pyridin-2yl}-amide], the “Atherogenic index Median CFB - 12 weeks results” value (50 mg q.d., week 1) was -0.10 mmol/L, the “Atherogenic index Mean CFB” value (50 mg q.d., week 2) was -0.13 mmol/L and the “Atherogenic index Mean percentage CFB - 12 weeks results” value (50 mg q.d., week 2) was −3%. For the same molecule, the “Atherogenic index Median CFB - 12 weeks results” value (50 mg q.d., week 2) was -0.20 mmol/L, the “Atherogenic index Mean CFB” value (50 mg q.d., week 4) was -0.11 mmol/L and the “Atherogenic index Mean percentage CFB - 12 weeks results” value (50 mg q.d., week 4) was −3%. For the same molecule, the “Atherogenic index Median CFB - 12 weeks results” value (50 mg q.d., week 4) was -0.10 mmol/L, the “Atherogenic index Mean CFB” value (50 mg q.d., week 8) was -0.03 mmol/L and the “Atherogenic index Mean percentage CFB - 12 weeks results” value (50 mg q.d., week 8) was 0%. For the same molecule, the “Atherogenic index Median CFB - 12 weeks results” value (50 mg q.d., week 8) was -0.10 mmol/L, the “Atherogenic index Mean CFB” value (50 mg q.d., week 12) was 0.01 mmol/L and the “Atherogenic index Mean percentage CFB - 12 weeks results” value (50 mg q.d., week 12) was 2%. For the same molecule, the “Atherogenic index Median CFB - 12 weeks results” value (50 mg q.d., week 12) was 0.00 mmol/L, the “Atherogenic index Mean CFB - 24 weeks results” value [1] was -0.05 mmol/L and the “Atherogenic index Mean percentage CFB - 24 weeks results” value [1] was −0.38%. The “Atherogenic index Median CFB - 24 weeks results” value [1] was 0.00 mmol/L, the “Atherogenic index Mean CFB - 24 weeks results” value [2] was -0.19 mmol/L and the “Atherogenic index Mean percentage CFB - 24 weeks results” value [2] was −4.84%. The “Atherogenic index Median CFB - 24 weeks results” value [2] was -0.20 mmol/L, the “Atherogenic index Mean CFB - 24 weeks results” value [3] was -0.30 mmol/L and the “Atherogenic index Mean percentage CFB - 24 weeks results” value [3] was −6.94%. The “Atherogenic index Median CFB - 24 weeks results” value [3] was -0.30 mmol/L, the “Atherogenic index Mean CFB - 24 weeks results” value [4] was -0.18 mmol/L and the “Atherogenic index Mean percentage CFB - 24 weeks results” value [4] was −3.54%. For the same molecule, the “Atherogenic index Median CFB - 24 weeks results” value [4] was -0.20 mmol/L, the “Atherogenic index Mean CFB - 24 weeks results” value [5] was -0.24 mmol/L and the “Atherogenic index Mean percentage CFB - 24 weeks results” value [5] was −4.76%. The “Atherogenic index Median CFB - 24 weeks results” value [5] was -0.20 mmol/L, the “Atherogenic index Mean CFB - 24 weeks results” value [6] was -0.25 mmol/L and the “Atherogenic index Mean percentage CFB - 24 weeks results” value [6] was −5.23%. The “Atherogenic index Median CFB - 24 weeks results” value [6] was -0.30 mmol/L, the “Atherogenic index Mean CFB - 24 weeks results” value [7] was -0.24 mmol/L and the “Atherogenic index Mean percentage CFB - 24 weeks results” value [7] was −5.40%. The “Atherogenic index Median CFB - 24 weeks results” value [7] was -0.20 mmol/L, the “Atherogenic index Mean CFB - 24 weeks results” value [8] was -0.18 mmol/L and the “Atherogenic index Mean percentage CFB - 24 weeks results” value [8] was −3.70%. The “Atherogenic index Median CFB - 24 weeks results” value [8] was -0.20 mmol/L, the “Atherogenic index Mean CFB - 24 weeks results” value [9] was -0.06 mmol/L and the “Atherogenic index Mean percentage CFB - 24 weeks results” value [9] was −0.13%. The “Atherogenic index Median CFB - 24 weeks results” value [9] was -0.10 mmol/L, the “Atherogenic index Mean CFB - 24 weeks results” value [10] was -0.17 mmol/L and the “Atherogenic index Mean percentage CFB - 24 weeks results” value [10] was −2.80%. For the same molecule, the “Atherogenic index Median CFB - 24 weeks results” value [10] was -0.10 mmol/L, the “Atherogenic index Mean CFB - 24 weeks results” value [11] was -0.11 mmol/L and the “Atherogenic index Median CFB - 24 weeks results” value [11] was -0.10 mmol/L. The “Atherogenic index Mean CFB - 24 weeks results” value [12] was -0.11 mmol/L, the “Atherogenic index Mean percentage CFB - 24 weeks results” value [12] was −1.34% and the “Atherogenic index Median CFB - 24 weeks results” value [12] was -0.10 mmol/L. The “Atherogenic index Mean CFB - 24 weeks results” value [13] was -0.06 mmol/L, the “Atherogenic index Mean percentage CFB - 24 weeks results” value [13] was −0.45% and the “Atherogenic index Median CFB - 24 weeks results” value [13] was -0.10 mmol/L. For the same molecule, the “Atherogenic index Mean CFB - 24 weeks results” value [14] was -0.18 mmol/L, the “Atherogenic index Mean percentage CFB - 24 weeks results” value [14] was −3.49% and the “Atherogenic index Median CFB - 24 weeks results” value [14] was -0.20 mmol/L. For the same molecule, the “Atherogenic index Mean CFB - 24 weeks results” value [15] was -0.27 mmol/L, the “Atherogenic index Mean percentage CFB - 24 weeks results” value [15] was −5.64% and the “Atherogenic index Median CFB - 24 weeks results” value [15] was -0.35 mmol/L. For the same molecule, the “Atherogenic index Mean CFB - 24 weeks results” value [16] was -0.17 mmol/L, the “Atherogenic index Mean percentage CFB - 24 weeks results” value [16] was −3.81% and the “Atherogenic index Median CFB - 24 weeks results” value [16] was -0.30 mmol/L. The “Atherogenic index Mean CFB” value (100 mg q.d., week 1) was -0.06 mmol/L, the “Atherogenic index Mean percentage CFB - 12 weeks results” value (100 mg q.d., week 1) was 0% and the “Atherogenic index Median CFB - 12 weeks results” value (100 mg q.d., week 1) was -0.10 mmol/L. For the same molecule, the “Atherogenic index Mean CFB” value (100 mg q.d., week 2) was -0.17 mmol/L, the “Atherogenic index Mean percentage CFB - 12 weeks results” value (100 mg q.d., week 2) was −3% and the “Atherogenic index Median CFB - 12 weeks results” value (100 mg q.d., week 2) was -0.10 mmol/L. The “Atherogenic index Mean CFB” value (100 mg q.d., week 4) was -0.11 mmol/L, the “Atherogenic index Mean percentage CFB - 12 weeks results” value (100 mg q.d., week 4) was −2% and the “Atherogenic index Median CFB - 12 weeks results” value (100 mg q.d., week 4) was -0.10 mmol/L. The “Atherogenic index Mean CFB” value (100 mg q.d., week 8) was -0.11 mmol/L, the “Atherogenic index Mean percentage CFB - 12 weeks results” value (100 mg q.d., week 8) was −1% and the “Atherogenic index Median CFB - 12 weeks results” value (100 mg q.d., week 8) was -0.10 mmol/L. For the same molecule, the “Atherogenic index Mean CFB” value (100 mg q.d., week 12) was -0.06 mmol/L and the “Atherogenic index Mean percentage CFB - 12 weeks results” value (100 mg q.d., week 12) was 0%.
